From US20070225245A1, “Viral vector driven mutant bacterial cytosine deaminase gene and uses thereof” (priority 1998, published 2007)
In brackets after ≈: the same amount, converted by molar mass.

What was measured:
[1] = tested on: Intracranial U87MG gliomas; assay: Survival, intracranial glioma, HSV and 5-FC; format: in vivo, SCID mice; settings: saline plus 5-FC
Experimental: Two days later, mice were begun on twice daily intraperitoneal injections of saline (1 ml) or 5-FC (500 mg/kg). Mice were followed for survival.
Studies were undertaken to determine the efficacy of the HSV construct, M012, in in vivo murine glioma models. […] The median survival of animals receiving saline plus 5-FC was 34 days. In a similar study with the D54MG intracranial model, median survival of mice injected intratumorally with M012 and administered 5-FC was 40 days, compared to 27 days with M012 plus saline and 19 days with saline and 5-FC (FIG. 14).

Panc2.03 xenografts = assay: Subcutaneous human pancreatic tumor xenograft, tumor growth; format: in vivo, athymic nude mice; settings: PBS plus 5-FC
Experimental: Animals were injected i.t. with 1×10^7 TCID50 of AdbCD-D314A or 1×10^8 TCID50 of AdbCDwt on Days 0, 7, and 14. 5-FC was administered i.p. at 400 mg/kg qd×5/week for 3 weeks starting on Day 1. Data points represent the mean change in tumor surface area relative to Day 0 for each group of animals.
To compare anti-tumor effects of AdbCD-D314A and AdbCDwt mediated molecular chemotherapy on established solid tumors, 7×10^6 Panc2.03 pancreatic cancer cells were injected s.c. into female athymic nude mice. Treatment was started 11 days post-tumor cell injection at the time of established tumor growth (tumors were 6-8 mm in diameter), noted as Day 0. Animals were randomly divided into groups receiving different treatments: 1) AdbCDwt plus 5-FC; 2) AdbCD-D314A plus 5-FC; 3) AdbCD-D314A plus PBS; 4) PBS plus 5-FC. Mice were injected i.t. with 1×10^8 TCID50 per tumor AdbCDwt or with 1×10^7 TCID50 AdbCD-D314A on Days 0, 7, and 14. Three groups of mice (# 1, 2 and 4) received 5-FC i.p. at 400 mg/kg on Days 1 to 5, 8 to 12, and 15 to 19.

[2] = tested on: BXPC-3 pancreatic tumor cells transfected with AdCMVCD; assay: MRS of 5-FC to 5-FU conversion in vitro; format: cell-based, human; settings: after 120 minutes; 3.8 mM 5-FC
Experimental: In vitro models of molecular chemotherapy were developed using the AdCMVCD cytosine deaminase toxin gene for the transfection of both human pancreatic and colon cancer cell lines (BXPC-3, WiDR, LS174T). […] In this study, an in vitro treatment model was proposed using 3×10^6 BXPC-3 pancreatic tumor cells transfected at a MOI of 100 with AdCMVCD. These cells were then examined by MRS at 0, 2, 6 and 24 hours for conversion of 5-FC to 5-FU.
Initial studies have shown the sensitivity of fluorine spectroscopy by its ability to detect 3.8 mM 5-FC when initially added to transfected BXPC-3 cells. […] However, after 120 minutes, the signal for 5-FC had dropped to 50% of its original intensity and the signal for 5-FU had increased to approximately 40% of the original 5-FC signal indicating conversion of 5-FC to 5-FU.

[3] = tested on: WiDr human colon cancer cells; assay: Radiation dose response, colony formation after Ad infection and 5-FC; format: cell-based; settings: No Viral Infection, 20 mg/ml 5-FC
Experimental: WiDr human colon cancer cells were plated at a density of 5×10^5 cells/well in 6-well tissue culture plates 24 hours prior to adenoviral infection. WiDr cells were then infected with AdCMVCD at a multiplicity of infection (MOI) of 1 or 10 plaque forming units (pfu) per cell in 0.5 ml Opti-Mem (Gibco-BRL) for 1.5 hours. A control virus that encodes the reporter gene E. coli LacZ which produces β-galactosidase (AdCMVLacZ) was provided by Dr. De-Chu Tang. Viral infection was stopped by the addition of 3 ml of complete growth media and the cells were returned to the incubator overnight. The following day, media was replaced with media supplemented with the appropriate concentration of 5-FC or no drug. The cells were then incubated in 5-FC for 3 days. The cells were then mock irradiated or irradiated on ice using a Picker ^60Co therapy unit (Cleveland, Ohio) at a dose rate of 80 cGy/min. The cells were then plated for colony formation. Colonies formed in 14 days and were fixed in ethanol and stained with 1% crystal violet.
SK-ChA-1 cells were infected with 10 MOI of AdCMVCD, or AdCMVLacZ, treated with 0, 10 or 20 μg/ml 5-FC for 72 hours, then irradiated with 0 or 8 Gy (80 cGy/min). The cells were irradiated on ice, then trypsinized, counted and plated in triplicate in 25 cm^2 tissue culture dishes (Costar) in media free of 5-FC. The plates were fixed and stained 14 days later. For both WiDr and SK-ChA-1 cells, colonies containing greater than 50 cells were counted. Percent survival was calculated as the average number of colonies counted divided by the number of cells plated times plating efficiency (PE); where PE was the fraction of colonies counted divided by cells plated without radiation. The dose response curve was fitted using the Fit v 2.4 software (provided by Dr. N. Albright, University of California at San Francisco, San Francisco, Calif.).

[4] = tested on: human cell lines derived from gliomas, prostate, colon, and pancreatic carcinomas; assay: 5-FU toxicity, panel of cell lines; format: cell-based; settings: range over 12 cell lines
Experimental: (§1) Tumor cells (5×10^4) were plated in 96 well plates and allowed to adhere overnight. Cells were then incubated continuously in the presence of increasing concentrations of 5-FU (0-200 μg/ml) and assayed for toxicity using an MTS assay (Promega, Madison Wis.) after 5-days. ICx values were calculated as previously described. U251MG glioma cells were as sensitive to 5-FU as LS174T and WiDR colon carcinoma cells, while D54MG, U87MG and U118MG glioma cells and AsPC-1 pancreatic carcinoma cells were 3-fold less sensitive (Table 2).

D54MG = assay: 5-FU toxicity, MTS assay; format: cell-based; settings: Homo sapiens, 120 h, 5 days
Experimental: as §1

ASPC-1 = assay: 5-FU toxicity, MTS assay; format: cell-based; settings: Homo sapiens, ASPC1, 120 h, 5 days
Experimental: as §1

U87MG = assay: 5-FU toxicity, MTS assay; format: cell-based; settings: Homo sapiens, U-87 MG, 120 h, 5 days
Experimental: as §1

U118MG = assay: 5-FU toxicity, MTS assay; format: cell-based; settings: Homo sapiens, U-118-MG, 120 h, 5 days
Experimental: as §1

## Nc1nc(=O)[nH]cc1F [5-FC, 5-fluorocytosine]
[1]
  median survival: 34 days
Panc2.03 xenografts
  mean time to tumor doubling: 22 days
[2]
  5-FC MRS signal, % of its original intensity: 50%
[3]
  Linear Quadratic Parameters a: 0
  Linear Quadratic Parameters al: 0
  Linear Quadratic Parameters b: 0.04
  Single Hit Multiple Target Do: 1.760
  Single Hit Multiple Target Dq: 3.679

## O=c1[nH]cc(F)c(=O)[nH]1 [5-FU, 5-fluorouracil]
[4]
  IC50: 0.04 to 4.97 µg/mL (≈ 0.308 to 38.2 µM)
D54MG
  IC20: 0.33 µg/mL (≈ 2.54 µM)
  IC50: 1.1 µg/mL (≈ 8.46 µM)
  IC80: 8.53 µg/mL (≈ 65.6 µM)
ASPC-1
  IC20: 0.04 µg/mL (≈ 0.308 µM)
  IC50: 1.58 µg/mL (≈ 12.1 µM)
  IC80: 39.4 µg/mL (≈ 303 µM)
U87MG
  IC20: 0.37 µg/mL (≈ 2.84 µM)
  IC50: 1.06 µg/mL (≈ 8.15 µM)
  IC80: 14 µg/mL (≈ 108 µM)
U118MG
  IC20: 0.24 µg/mL (≈ 1.85 µM)
  IC50: 1.06 µg/mL (≈ 8.15 µM)
  IC80: 61.5 µg/mL (≈ 473 µM)
[2]
  5-FU MRS signal, % of the original 5-FC signal: approximately 40%
